Reference: patent US4983633A, “Amide compounds, process for preparing the same, and composition for activating gastric motor function containing the same” (Hokuriku Pharmaceutical Co., Ltd., priority 1987, dated 1991)
Several values for one entry are separate records, joined by “and”; a condition that tells them apart may be missing. Identical values can stand only once. Counter-ions that a name gives are not always drawn.

system: not listed separately; experiment: Acute toxicological study in mice (up and down method); conditions: mouse, in vivo; intravenous, male ICR mice aged 5 weeks
Procedure: Acute toxicological study in mice
Male ICR mice aged 5 weeks were used for each determination. The test compounds (2-4 different doses) were intravenously administered and LD50 values were calculated using the up and down method. Results were as follows (Table 3).

SMILES | LD50 [mg/kg]
COc1ccc(C(=O)NCc2ccc(OCCN(C)C)cc2)cc1OC.Cl [Compound 2, N-[4-[2-(Dimethylamino)ethoxy]benzyl]-3,4-dimethoxybenzamide hydrochloride] | 191
O=C(NCc1ccc(OCCN2CCCC2)cc1)c1ccc2c(c1)OCO2 [Compound 3, 3,4-Methylenedioxy-N-[4-[2-(1-pyrrolidinyl)ethoxy]benzyl]benzamide] | 62.6
COc1cc(N)c(Cl)cc1C(=O)NCc1ccc(OCCN(C)C)cc1 [Compound 5, 4-Amino-5-chloro-N-[4-[2-(dimethylamino)ethoxy]benzyl]-2-methoxybenzamide] | 94
COc1ccc(S(N)(=O)=O)cc1C(=O)NCc1ccc(OCCN(C)C)cc1 [Compound 6, N-[4-[2-(Dimethylamino)ethoxy]benzyl]-2-methoxy-5-sulfamoylbenzamide] | 39.2
CN(C)CCOc1ccc(CNC(=O)c2ccc(S(N)(=O)=O)cc2)cc1 [Compound 8, N-[4-[2-(Dimethylamino)ethoxy]benzyl]-4-sulfamoylbenzamide] | 85.1
COc1ccc(C(=O)NCc2ccc(OCCN3CCCCC3)cc2)cc1OC [Compound 19] | 70.8
COc1cccc(C(=O)NCc2ccc(OCCN(C)C)cc2)c1 [Compound 23] | 74.1
CCOc1ccc(C(=O)NCc2ccc(OCCN(C)C)cc2)cc1 [Compound 25] | 87.1
CCOc1ccc(C(=O)NCc2ccc(OCCN(C)C)cc2)cc1OC [Compound 31, N-[4-[2-(dimethylamino)ethoxy]benzyl]-4-ethoxy-3-methoxybenzamide] | 105
CCOc1ccc(C(=O)NCc2ccc(OCCN(C)C)cc2)cc1OCC [Compound 32] | 112
COc1cc(N)c(Cl)cc1C(=O)NCc1ccc(OCCN2CCCC2)cc1 [Compound 34, 4-amino-5-chloro-2-methoxy-N-[4-[2-(1-pyrrolidinyl)ethoxy]benzyl] benzamide] | 44.7
COc1cc(N)c(Cl)cc1C(=O)NCc1ccc(OCCN2CCCCC2)cc1 [Compound 35] | 61.7
Cc1cccc(C(=O)NCc2ccc(OCCN(C)C)cc2)c1 [Compound 47] | 68.5
Cc1ccc(C(=O)NCc2ccc(OCCN(C)C)cc2)cc1 [Compound 48] | 83.2
CN(C)CCOc1ccc(CNC(=O)c2cccc([N+](=O)[O-])c2)cc1 [Compound 51] | 85.9
CN(C)CCOc1ccc(CNC(=O)c2ccc(C#N)cc2)cc1 [Compound 53] | 77.6

system: apomorphine-induced emesis; experiment: Suppressing effects on apomorphine-induced emesis in beagle dogs; format: in vivo, beagle dogs (male); conditions: 1 mg/kg p.o., apomorphine s.c., observed for sixty minutes
Procedure: Suppressing effects of the test compounds on apomorphine-induced emesis in beagle dogs
Male beagle dogs weighing about 8 kg were fasted overnight. The test compounds (suspended or dissolved in 0.5% CMC) were administered orally and the dogs fed fortyfive minutes later.

SMILES | antiemetic effect
CCN(CC)CCNC(=O)c1cc(Cl)c(N)cc1OC [Metoclopramide HCl, 4-Amino-5-chloro-N-[(2-diethylamino)ethyl]-2-methoxybenzamide] | significant antiemetic effect

same assay, conditions: 30 mg/kg p.o., apomorphine s.c., observed for sixty minutes

SMILES | antiemetic effect
COc1ccc(C(=O)NCc2ccc(OCCN(C)C)cc2)cc1OC.Cl [Compound 2, N-[4-[2-(Dimethylamino)ethoxy]benzyl]-3,4-dimethoxybenzamide hydrochloride] | slight antiemetic effect
COc1cc(C(=O)NCc2ccc(OCCN(C)C)cc2)cc(OC)c1OC [Trimethobenzamide HCl, N-[4-[2-(dimethylamino)ethoxy]benzyl]-3,4,5-trimethoxybenzamide] | significant antiemetic effect

system: isolated guinea pig ileum; experiment: Contractile effects of the test compounds in isolated guinea pig ileum; set-up: species or system guinea pig (male Hartley); conditions: Cavia porcellus; isolated ileum strips, 37° C, relative to 10^-6 M acetylcholine-induced contraction; read-out: ED50 (dose which evoked 50% of the acetylcholine-induced contraction)
Procedure: Contractile effects of the test compounds in isolated guinea pig ileum
Male Hartley guinea-pigs weighing about 450 g were sacrificed and the ileum was excised. Then intact strips 1.5-2.0 cm long were prepared. These preparations were suspended vertically in an organ bath filled with Krebs-Henseleit's solution at 37° C. which was gassed with 95% O2 and 5% CO2. Rhythmic contractions of the preparations were isotonically measured. Effects of the test compounds were assessed as the relative percentage of a test compound against 10^-6 M acetylcholine-induced contractions. Results were as follows (Table 1).
*The dose which evoked 50% of the acetylcholineinduced contraction.

SMILES | EC50 [nM]
COc1ccc(C(=O)NCc2ccc(OCCN(C)C)cc2)cc1OC.Cl [Compound 2, N-[4-[2-(Dimethylamino)ethoxy]benzyl]-3,4-dimethoxybenzamide hydrochloride] | 600
O=C(NCc1ccc(OCCN2CCCC2)cc1)c1ccc2c(c1)OCO2 [Compound 3, 3,4-Methylenedioxy-N-[4-[2-(1-pyrrolidinyl)ethoxy]benzyl]benzamide] | 460
COc1cc(N)c(Cl)cc1C(=O)NCc1ccc(OCCN(C)C)cc1 [Compound 5, 4-Amino-5-chloro-N-[4-[2-(dimethylamino)ethoxy]benzyl]-2-methoxybenzamide] | 180
COc1ccc(S(N)(=O)=O)cc1C(=O)NCc1ccc(OCCN(C)C)cc1 [Compound 6, N-[4-[2-(Dimethylamino)ethoxy]benzyl]-2-methoxy-5-sulfamoylbenzamide] | 400
COc1ccc(S(=O)(=O)N(C)C)cc1C(=O)NCc1ccc(OCCN(C)C)cc1 [Compound 7, N-[4-[2-(Dimethylamino)ethoxy]benzyl]-5-dimethylaminosulfonyl 2-methoxybenzamide] | 300
CN(C)CCOc1ccc(CNC(=O)c2ccc(S(N)(=O)=O)cc2)cc1 [Compound 8, N-[4-[2-(Dimethylamino)ethoxy]benzyl]-4-sulfamoylbenzamide] | 1600
COc1cc(OC)cc(C(=O)NCc2ccc(OCCN(C)C)cc2)c1 [Compound 14] | 690
COc1ccc(C(=O)NCc2ccc(OCCN3CCCCC3)cc2)cc1OC [Compound 19] | 420
CN(C)CCOc1ccc(CNC(=O)c2ccccc2)cc1 [Compound 20] | 500
COc1cccc(C(=O)NCc2ccc(OCCN(C)C)cc2)c1 [Compound 23] | 300
COc1ccc(C(=O)NCc2ccc(OCCN(C)C)cc2)cc1 [Compound 24] | 610
CCOc1ccc(C(=O)NCc2ccc(OCCN(C)C)cc2)cc1 [Compound 25] | 680
CCOc1ccc(C(=O)NCc2ccc(OCCN(C)C)cc2)cc1OC [Compound 31, N-[4-[2-(dimethylamino)ethoxy]benzyl]-4-ethoxy-3-methoxybenzamide] | 420
CCOc1ccc(C(=O)NCc2ccc(OCCN(C)C)cc2)cc1OCC [Compound 32] | 140
COc1cc(N)c(Cl)cc1C(=O)NCc1ccc(OCCN2CCCC2)cc1 [Compound 34, 4-amino-5-chloro-2-methoxy-N-[4-[2-(1-pyrrolidinyl)ethoxy]benzyl] benzamide] | 120
COc1cc(N)c(Cl)cc1C(=O)NCc1ccc(OCCN2CCCCC2)cc1 [Compound 35] | 490
CNS(=O)(=O)c1ccc(OC)c(C(=O)NCc2ccc(OCCN(C)C)cc2)c1 [Compound 36] | 340
COc1ccc(S(N)(=O)=O)cc1C(=O)NCc1ccc(OCCN2CCCC2)cc1 [Compound 37] | 180
COc1ccc(S(N)(=O)=O)cc1C(=O)NCc1ccc(OCCN2CCCCC2)cc1 [Compound 38] | 350

SMILES | EC50 [nM]
CN(C)CCOc1ccc(CNC(=O)c2ccc(Cl)c(S(=O)(=O)N(C)C)c2)cc1 [Compound 39] | 390
CN(C)S(=O)(=O)c1cc(C(=O)NCc2ccc(OCCN3CCCC3)cc2)ccc1Cl [Compound 40] | 600
COc1cc(N)c(S(N)(=O)=O)cc1C(=O)NCc1ccc(OCCN(C)C)cc1 [Compound 41] | 130
CNS(=O)(=O)c1ccc(OC)c(C(=O)NCc2ccc(OCCN3CCCC3)cc2)c1 [Compound 43] | < 100
CN(C)CCOc1ccc(CNC(=O)c2cccc(Cl)c2)cc1 [Compound 45] | 4600
Cc1cccc(C(=O)NCc2ccc(OCCN(C)C)cc2)c1 [Compound 47] | 3000
Cc1ccc(C(=O)NCc2ccc(OCCN(C)C)cc2)cc1 [Compound 48] | 510
CN(C)CCOc1ccc(CNC(=O)c2cccc([N+](=O)[O-])c2)cc1 [Compound 51] | 610
CN(C)CCOc1ccc(CNC(=O)c2ccc([N+](=O)[O-])cc2)cc1 [Compound 52] | 450
CN(C)CCOc1ccc(CNC(=O)c2ccc(C#N)cc2)cc1 [Compound 53] | 460
CN(C)CCOc1ccc(CNC(=O)c2ccc(N(C)C)cc2)cc1 [Compound 55] | 1300
Cc1ccc(C(=O)NCc2ccc(OCCN3CCCC3)cc2)cc1 [Compound 56] | 320
N#Cc1ccc(C(=O)NCc2ccc(OCCN3CCCC3)cc2)cc1 [Compound 57] | 930
O=C(NCc1ccc(OCCN2CCCC2)cc1)c1cccc([N+](=O)[O-])c1 [Compound 58] | 420
CN(C)CCOc1ccc(CNC(=O)c2ccc(Cl)cc2Cl)cc1 [Compound 59] | 620
Cc1cc(C(=O)NCc2ccc(OCCN(C)C)cc2)ccc1[N+](=O)[O-] [Compound 62] | 390
Cc1cc(C(=O)NCc2ccc(OCCN3CCCC3)cc2)ccc1[N+](=O)[O-] [Compound 63] | 500
CCN(CC)CCNC(=O)c1cc(Cl)c(N)cc1OC [Metoclopramide HCl, 4-Amino-5-chloro-N-[(2-diethylamino)ethyl]-2-methoxybenzamide] | 6300
COc1cc(C(=O)NCc2ccc(OCCN(C)C)cc2)cc(OC)c1OC [Trimethobenzamide HCl, N-[4-[2-(dimethylamino)ethoxy]benzyl]-3,4,5-trimethoxybenzamide] | 1500

same assay, conditions: isolated guinea pig ileum, compared with metoclopramide.HCl

SMILES | times stronger contractile effect than metoclopramide.HCl
COc1ccc(C(=O)NCc2ccc(OCCN(C)C)cc2)cc1OC.Cl [Compound 2, N-[4-[2-(Dimethylamino)ethoxy]benzyl]-3,4-dimethoxybenzamide hydrochloride] | about 10 times

same assay, conditions: isolated guinea pig ileum, compared with trimethobenzamide.HCl

SMILES | times stronger contractile effect than trimethobenzamide.HCl
COc1ccc(C(=O)NCc2ccc(OCCN(C)C)cc2)cc1OC.Cl [Compound 2, N-[4-[2-(Dimethylamino)ethoxy]benzyl]-3,4-dimethoxybenzamide hydrochloride] | about 2.5 times

system: dopamine-induced suppression of gastrointestinal transit; experiment: Improving effects on dopamine-induced suppression of gastrointestinal transit in mice (charcoal meal); format: in vivo, mice (male ddY); conditions: 30 mg/kg p.o.
Procedure: Improving effects of the test compound on dopamine-induced suppression of gastrointestinal transit in mice
Male mice of the ddY strain weighing about 22 g were fasted overnight and the test compounds (suspended in 0.5% carboxymethylcellulose) were administered orally. Thirty minutes later dopamine (2 mg/kg dissolved in saline) or saline only was administered intraperitoneally followed immediately by the oral administration of charcoal meal (5% charcoal powder suspended in 10% gum arabic). Twenty minutes later the animals were sacrificed and the digestive tracts were isolated from the stomach to the cecum. The gastrointestinal transit was determined by calculating the total intestinal length between the pylorus and the cecum and the length over which charcoal meal was carried from the pylorus. Statistical analysis was carried out by Student's t-test for unpaired observations.

SMILES | improvement of gastrointestinal transit inhibited by dopamine (in words)
CCN(CC)CCNC(=O)c1cc(Cl)c(N)cc1OC [Metoclopramide HCl, 4-Amino-5-chloro-N-[(2-diethylamino)ethyl]-2-methoxybenzamide] | did not so only to a much lesser extent
COc1cc(C(=O)NCc2ccc(OCCN(C)C)cc2)cc(OC)c1OC [Trimethobenzamide HCl, N-[4-[2-(dimethylamino)ethoxy]benzyl]-3,4,5-trimethoxybenzamide] | did not so only to a much lesser extent

same assay, conditions: dopamine alone 2 mg/kg i.p., no test compound (model control group)

SMILES | Gastrointestinal transit (% ± S.E.), dopamine alone
NCCc1ccc(O)c(O)c1 [Dopamine, dopamine] | 25.0 ± 3.4% and 35.9 ± 2.1% and 32.9 ± 3.1% and 32.1 ± 2.0% and 31.7 ± 3.2%

same assay, conditions: test compound 30 mg/kg p.o. + dopamine 2 mg/kg i.p.

SMILES | Improvement (%)
COc1ccc(C(=O)NCc2ccc(OCCN(C)C)cc2)cc1OC.Cl [Compound 2, N-[4-[2-(Dimethylamino)ethoxy]benzyl]-3,4-dimethoxybenzamide hydrochloride] | 56.5
O=C(NCc1ccc(OCCN2CCCC2)cc1)c1ccc2c(c1)OCO2 [Compound 3, 3,4-Methylenedioxy-N-[4-[2-(1-pyrrolidinyl)ethoxy]benzyl]benzamide] | 56.9
COc1ccc(C(=O)NCc2ccc(OCCN3CCCC3)cc2)cc1OC [Compound 18, 3,4-Dimethoxy-N-[4-[2-(1-pyrrolidinyl)ethoxy]benzyl]benzamide] | 71.7
CCOc1ccc(C(=O)NCc2ccc(OCCN(C)C)cc2)cc1OC [Compound 31, N-[4-[2-(dimethylamino)ethoxy]benzyl]-4-ethoxy-3-methoxybenzamide] | 58.5
COc1cc(N)c(Cl)cc1C(=O)NCc1ccc(OCCN2CCCC2)cc1 [Compound 34, 4-amino-5-chloro-2-methoxy-N-[4-[2-(1-pyrrolidinyl)ethoxy]benzyl] benzamide] | 63.4
CCN(CC)CCNC(=O)c1cc(Cl)c(N)cc1OC [Metoclopramide HCl, 4-Amino-5-chloro-N-[(2-diethylamino)ethyl]-2-methoxybenzamide] | 27.1
COc1cc(C(=O)NCc2ccc(OCCN(C)C)cc2)cc(OC)c1OC [Trimethobenzamide HCl, N-[4-[2-(dimethylamino)ethoxy]benzyl]-3,4,5-trimethoxybenzamide] | 32.4

same assay, conditions: test compound 30 mg/kg p.o. + dopamine 2 mg/kg i.p.; 20 min after charcoal meal

SMILES | Gastrointestinal transit (% ± S.E.) [%]
COc1ccc(C(=O)NCc2ccc(OCCN(C)C)cc2)cc1OC.Cl [Compound 2, N-[4-[2-(Dimethylamino)ethoxy]benzyl]-3,4-dimethoxybenzamide hydrochloride] | 43.9 ± 2.8
O=C(NCc1ccc(OCCN2CCCC2)cc1)c1ccc2c(c1)OCO2 [Compound 3, 3,4-Methylenedioxy-N-[4-[2-(1-pyrrolidinyl)ethoxy]benzyl]benzamide] | 44.0 ± 4.7
COc1ccc(C(=O)NCc2ccc(OCCN3CCCC3)cc2)cc1OC [Compound 18, 3,4-Dimethoxy-N-[4-[2-(1-pyrrolidinyl)ethoxy]benzyl]benzamide] | 43.0 ± 6.5
CCOc1ccc(C(=O)NCc2ccc(OCCN(C)C)cc2)cc1OC [Compound 31, N-[4-[2-(dimethylamino)ethoxy]benzyl]-4-ethoxy-3-methoxybenzamide] | 45.2 ± 3.0
COc1cc(N)c(Cl)cc1C(=O)NCc1ccc(OCCN2CCCC2)cc1 [Compound 34, 4-amino-5-chloro-2-methoxy-N-[4-[2-(1-pyrrolidinyl)ethoxy]benzyl] benzamide] | 46.6 ± 3.4
CCN(CC)CCNC(=O)c1cc(Cl)c(N)cc1OC [Metoclopramide HCl, 4-Amino-5-chloro-N-[(2-diethylamino)ethyl]-2-methoxybenzamide] | 37.2 ± 3.2
COc1cc(C(=O)NCc2ccc(OCCN(C)C)cc2)cc(OC)c1OC [Trimethobenzamide HCl, N-[4-[2-(dimethylamino)ethoxy]benzyl]-3,4,5-trimethoxybenzamide] | 38.2 ± 3.8
